Experimental data taken from patent publication US20170312253A1 (The Third Affiliated Hospital, Third Military Medical …, priority 2014, published 2017).

What was measured:
Aβ42 = Aβ42 (Homo sapiens, UniProt P05067); test: Western blot determination of aggregation-inhibitive effect on Aβ; type: biochemical; settings: read-out: inhibition of Aβ from forming aggregates (Western blot)
SH-SY5Y cells [1] = test: MTT cell viability assay, Aβ-treated SH-SY5Y cells; type: cell-based; settings: 1 μM Aβ oligomers, 24 h, dose-dependent
Experimental: (§1) The SH-SY5Y cell line was purchased from the Peking Union Hospital Cell Bank, cultured in a humidified incubator under 5% CO2 and 37° C., A MTT cell viability assay was performed according to the instructions in the kit (Sigma). […] The optical density values were determined at a wavelength of 563 nm (Synergy H4, Bio Tek). The neurite growth test was performed according to the method described in the prior documents (see, for example, Wang, Y. J., et al., Effects of proNGF on neuronal viability, neurite growth and amyloid-beta metabolism. Neurotox Res, 2010, 17(3): p. 257-67).

SH-SY5Y cells [2] = test: Neurite growth detection, Aβ-treated SH-SY5Y cells; type: cell-based; settings: 1 μM Aβ, 24 h
Experimental: as §1

[3] = test system: APPswe/PS1DE9 (AD) transgenic mice; test: Morris water maze; type: in vivo; settings: prophylactic and therapeutic test, vs control group
Experimental: (§2) APPswe/PS1DE9 (AD) transgenic mice were purchased from Jackson Laboratory, USA (No. 005864), raised in the SPF grade animal house of The Third Affiliated Hospital of The Third Military Medical University. All the processes and correlated experiments applied to the mice were approved and filed with the Animal Ethics Committee of the Third Military Medical University. […] Alternatively, the daily dose for the prophylactic group may be 6.4 mg/kg, and the daily dose for the treatment group may be 12.8 mg/kg. Administration from 3-month old to 9-month old is the prophylactic test, and administration from 9-month old to 12-month old is the therapeutic test After reaching a stated time, the mice in each group received behavioral tests according to the method in the follows. Three mice in each group were taken for Golgi staining. […] The entire process was recorded by video, and analyzed with an image analysis software (ANY-maze, Stoelting). In the platform test, the escape path length and escape latency were measured and calculated. In the probe test, the time in each quadrant and the time across platform were measured. […] In the open field test, the mouse was put in the center of an open field for 3 min, and its path was recorded by a tracking system (Limelight, ActiMetrics). At the same time, the numbers of rearing, grooming, defecation and urination of the mouse were recorded.

[4] = test system: APPswe/PS1DE9 (AD) transgenic mice; test: Open field test; type: in vivo; settings: AD mice vs control group
Experimental: as §2

NEP = test: Western blot of Aβ metabolizing enzymes in brain: NEP; type: in vivo; settings: AD mice brain
Experimental: (§3) APPswe/PS1DE9 (AD) transgenic mice were purchased from Jackson Laboratory, USA (No. 005864), raised in the SPF grade animal house of The Third Affiliated Hospital of The Third Military Medical University. All the processes and correlated experiments applied to the mice were approved and filed with the Animal Ethics Committee of the Third Military Medical University. […] Alternatively, the daily dose for the prophylactic group may be 6.4 mg/kg, and the daily dose for the treatment group may be 12.8 mg/kg. […]
(§4) The enzymes related with Aβ formation and degradation their molecule levels, the levels of hyperphosphprylated Tau proteins, and the levels of synaptic plasticity correlated proteins were all detected with Western blot. […] The blotting was detected with the following antibodies: APP C terminal antibody (171610, Millipore), BACE1 antibody (Millipore), Aβ antibody (6E10, Abcam), Nepriiysin antibody (Millipore), RAGE antibody (Millipore), LRP antibody (5A6, Calbiochem), IDE antibody (epitomics), phosphorylated Tau protein antibody, including pS396 (Signalway), pT231 (Signalway), pS199 (epitomics), pS262 (Abcam), SNAP25 antibody (Millipore), Synaptophysin antibody (Millipore), Synapsin I antibody (Millipore), VAMP1 antibody (Millipore), PSD95 antibody (Millipore), F-actin antibody (Actin) (Sigma-Aldrich). […]

IDE = test: Western blot of Aβ metabolizing enzymes in brain: IDE; type: in vivo; settings: AD mice brain
Experimental: as §3, §4

RAGE = test: Western blot of Aβ metabolizing enzymes in brain: RAGE; type: in vivo; settings: AD mice brain
Experimental: as §3, §4

[5] = test system: neural inflammatory reactions; test: Neural inflammatory reaction in brain (ELISA of IL-6, IL-1β, INF-γ, TNF-β); type: in vivo; settings: AD mice
Experimental: (§5) APPswe/PS1DE9 (AD) transgenic mice were purchased from Jackson Laboratory, USA (No. 005864), raised in the SPF grade animal house of The Third Affiliated Hospital of The Third Military Medical University. All the processes and correlated experiments applied to the mice were approved and filed with the Animal Ethics Committee of the Third Military Medical University. […] Alternatively, the daily dose for the prophylactic group may be 6.4 mg/kg, and the daily dose for the treatment group may be 12.8 mg/kg. Administration from 3-month old to 9-month old is the prophylactic test, and administration from 9-month old to 12-month old is the therapeutic test After reaching a stated time, the mice in each group received behavioral tests according to the method in the follows. Three mice in each group were taken for Golgi staining. The remaining mice were overly anaesthetized to receive brain anatomy. One side of the cerebral hemisphere was frozen and then for a biochemical analysis, and the other side of the cerebral hemisphere was fixed with 4% paraform for a histological analysis.
After homogenating the frozen brain tissues, extraction was conducted with TBS, SDS and formic acid successively. The TBS, SDS and formic acid extracts represent soluble Aβ, loosen senile plaques and compact senile plaques, respectively. […]

neurons = test: Neuron apoptosis in the brain of AD mice; type: in vivo
Experimental: as §5

N2a/Swe.Δ9 cells = settings: cited from earlier work
[6] = test system: ischemia-reperfused elderly rats; settings: cited from earlier work

Aβ42, sequence (P05067 672-713 limits assumed): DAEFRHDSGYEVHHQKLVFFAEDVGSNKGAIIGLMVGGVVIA

inhibition at 3 µM (Aβ42): 50%
SMILES: CC1=NN(c2ccccc2)C(=O)C1 [Edaravone, 3-methyl-1-phenyl-2-pyrazolin-5-one]
cell survival rate (SH-SY5Y cells [1]): cell survival rate increases significantly
all-trans-Retinoic acid induced neurite length (SH-SY5Y cells [2]): neurite length also increases
Morris water maze escape time [3]: reduction of escape time
Morris water maze times across platform [3]: increase in times across platform
open field probe distance [4]: significantly higher than in the control group
open field rearings [4]: significantly higher than in the control group
influence on NEP (NEP): no influence
influence on IDE (IDE): no influence
influence on RAGE (RAGE): no influence
neural inflammatory reaction level in the brain ([5]; p.o.): significantly reduced, too
neural inflammatory reaction in the brain ([5]; prophylactic and therapeutic test): all reduced significantly
neuron apoptosis in the brain (neurons): significantly reduce the neuron apoptosis
mitochondrion dependant apoptosis pathway (N2a/Swe.Δ9 cells): inhibit the mitochondrion dependant apoptosis pathway
JNK-c-Jun pathway [6]: suppress the JNK-c-Jun pathway
glutathione peroxidase activity [6]: reduce the glutathione peroxidase activity
neuronal apoptosis [6]: decrease the neuronal apoptosis
